Laboratory results taken from patent publication US20030056788A1, “Partial liquid breathing of fluorocarbons” (priority 1991, published 2003).

Tests used:
[1] = Vapor pressure of fluorocarbons
[2] = Surface and interfacial tensions and spreading coefficients of perfluorocarbons on saline; format: physicochemical; design: S(o on w) spreading coefficient: unit: mN/m; details: T = 25 C; for γo/w (interfacial tension oil/water) / S(o on w) spreading coefficient: on saline; for S(o on w) spreading coefficient: S = γw/a − (γw/o + γo/a)
Description: The ability of a given substance to cover a measured surface area can be described by its spreading coefficient. The spreading coefficients for fluorocarbons can be expressed by the following equation:
S(o on w)=γw/a−(γw/o+γo/a)
Where S (o on w) represents the spreading coefficient; γ=interfacial tension; w/a=water/air; w/o=water/oil; and o/a=oil/air.
Fluorocarbons having spreading coefficients of at least one are particularly preferred. If the spreading coefficient is negative, the compound will tend to remain as a lens on the membrane surface. Adequate coverage of the lung surface is important for restoring oxygen and carbon dioxide transfer and for lubricating the lung surfaces to minimize further pulmonary trauma.
Each perfluorocarbon tested is provided together with its molecular weight and the specific variables that are used to calculate the spreading coefficient S (o on w). The perfluorocarbons reported are PFOB, perfluorotributylamine (FC-17), perfluorodecalin (APF-140), dimethyl perfluorodecalin (APF-175), trimethyl decalin (APF-200), perfluoroperhydrophenanthrene (APF-215), pentamethyl decalin (APF-240), and octamethyl decalin (APF-260).

[3] = test system: rabbits following lung lavage to remove endogenous surfactant; assay: Partial liquid ventilation with PFOB in rabbit model of respiratory insufficiency induced by lung lavage; format: in vivo, New Zealand rabbits; details: rabbits after lung lavage
Protocol: The following examples provide information relating to the effect of PFOB treatment on respiratory insufficiency in an experimental rabbit model. The general protocol for partial liquid ventilation of the rabbits is described below.
New Zealand rabbits weighing between 2.8 and 3.0 kg were anesthetized with 50 mg/kg of […] sodium iv and a cannula was inserted through a tracheotomy midway along the trachea with its tip proximal to the carina. Ventilation with a Servo ventilator 900C (Siemens-Elema, Sweden) was initiated using pure oxygen and zero end-expiratory pressure with a constant tidal volume of 12 ml/kg, frequency of 30/min and inspiratory time of 35%. Anesthesia was maintained with additional doses of pentobarbital, as required, and pancuronium bromide was administered as an intravenous bolus (0.1 mg/kg) and followed by a continuous infusion (0.1 mg/kg/hr) for muscle paralyzation. A solution of 5% dextrose and 0.45% NaCl was administered continuously at a rate of 10 ml/kg/hr as a maintenance fluid. A heating pad maintained core temperature at 37±1° C., monitored by an esophageal thermistor (Elektroalboratoriet, Copenhagen).
Left femoral artery and vein were each cannulated with polyvinyl catheters for arterial and central venous pressure recording and blood sampling. A special indwelling catheter (Mikro-pO2-Messkatheter, Licox) was inserted into the right femoral artery for continuous oxygen pressure monitoring (Licox, GMS, Germany). Arterial blood gas and Hb (hemoglobin) measurements were made by Osm-2 Hemoximeter and ABL-330 (Radiometer Copenhagen). Lung mechanics and end-tidal CO2 were measured by means of Lung Mechanics Calculator 940 (Siemens-Elema, Sweden) and CO2 Analyzer 930 (Siemens-Elema, Sweden), respectively. Intravascular pressure monitoring was made by using a Statham P23XL transducer (Spectramed, USA) and all tracings including ECG were recorded by a Sirecust 1280 recorder (Siemens).
After the control observations were made, lung lavage with 30 ml/kg of warm saline (37° C.) was performed to induce respiratory insufficiency. After the first lavage, positive end expiratory pressure (PEEP) was increased to 6 cmH2O and lung lavages were repeated to get an arterial pO2 below 100 mmHg with the initial ventilatory settings (between 4-6 lavages). […]
After respiratory insufficiency was induced, PFOB liquid was administered through the tracheal cannula into the animal's lungs with incremental doses of 3 ml/kg up to a total volume of 15 ml/kg. Animals were ventilated for 15 minutes after each dose of PFOB instillation with the same ventillatory settings as mentioned above and thereafter arterial blood gases, cardiocirculatory parameters and pulmonary mechanics were measured. […]

FC(F)(F)C(F)(F)C(F)(F)C(F)(F)C(F)(F)C(F)(F)Br [1-bromotridecafluorohexane]
vapor pressure (in words) [1]: relatively high vapor pressures

FC1(F)C(F)(F)C(F)(F)C2(F)C(F)(F)C(F)(F)C(F)(F)C(F)(F)C2(F)C1(F)F (stereo not drawn) [APF-140, perfluorodecalin]
γo/a (interfacial tension oil/air) [2]: 18.2 mN/m | γo/w (interfacial tension oil/water) [2]: 55.3 mN/m

FC1(F)C(F)(F)C(F)(F)C2(F)C(F)(C1(F)F)C(F)(F)C(F)(F)C1(F)C(F)(F)C(F)(F)C(F)(F)C(F)(F)C12F (stereo not drawn) [APF-215, perfluoroperhydrophenanthrene]
γo/a (interfacial tension oil/air) [2]: 21.6 mN/m | γo/w (interfacial tension oil/water) [2]: 56.0 mN/m | S(o on w) spreading coefficient [2]: −5.6

FC(F)(F)C(F)(F)C(F)(F)C(F)(F)N(C(F)(F)C(F)(F)C(F)(F)C(F)(F)F)C(F)(F)C(F)(F)C(F)(F)C(F)(F)F [FC-47, perfluorotributylamine]
γo/a (interfacial tension oil/air) [2]: 17.9 mN/m | γo/w (interfacial tension oil/water) [2]: 55.1 mN/m

FC(F)(F)C(F)(F)C(F)(F)C(F)(F)C(F)(F)C(F)(F)C(F)(F)C(F)(F)Br [PFOB, 1-bromo-heptadecafluoro-octane]
vapor pressure ([1]; 37° C.): 14 torr | arterial oxygen pressure as percent of original (pre-lavage) value ([3]; 15 ml/kg PFOB intratracheal, n = 6): 83% | mean arterial carbon dioxide tension (in words) ([3]; after PFOB administration, post-lavage level 48.7 mmHg): decreased | mean airway pressure (in words) ([3]; increasing volumes of PFOB): decreased mean airway pressure | arterial oxygen tension (in words) ([3]; increasing volumes of PFOB 3-15 ml/kg intratracheal, compared to saline treated controls): significantly improved the arterial oxygen tension | γo/a (interfacial tension oil/air) [2]: 18.0 mN/m | γo/w (interfacial tension oil/water) [2]: 51.3 mN/m

dimethyl perfluorodecalin [APF-175]
γo/a (interfacial tension oil/air) [2]: 20.7 mN/m | γo/w (interfacial tension oil/water) [2]: 55.9 mN/m | S(o on w) spreading coefficient [2]: −4.6

octamethyl decalin [APF-260]
γo/a (interfacial tension oil/air) [2]: 22.4 mN/m | γo/w (interfacial tension oil/water) [2]: 56.1 mN/m | S(o on w) spreading coefficient [2]: −6.5

pentamethyl decalin [APF-240]
γo/a (interfacial tension oil/air) [2]: 22.6 mN/m | γo/w (interfacial tension oil/water) [2]: 56.3 mN/m | S(o on w) spreading coefficient [2]: −6.9

trimethyl decalin [APF-200]
γo/a (interfacial tension oil/air) [2]: 21.4 mN/m | γo/w (interfacial tension oil/water) [2]: 55.9 mN/m | S(o on w) spreading coefficient [2]: −5.3
